Results taken from US20060148840A1, “Pyrrolodihydroisoquinolines as pde10 inhibitors” (Altana Pharma AG, priority 2003, published 2006).

melting point [°C]	Compound
232 to 234	CCOc1cc2c(cc1OC)-c1c(C#N)c(-c3cc(C)c(O)c(C)c3)c(C)n1C(C)C2 (centres unmarked) [Example 53, 8-Ethoxy-2-(4-hydroxy-3,5-dimethyl-phenyl)-9-methoxy-3,5-dimethyl-5,6-dihydro-pyrrolo[2,1-a]isoquinoline-1-carbonitrile]
101 to 102	CCOC(=O)c1c(-c2cccc(N(C)C)c2)c(C)n2c1-c1cc(OC)c(OC)cc1CC2(C)C [Example 4, 2-(3-Dimethylamino-phenyl)-8,9-dimethoxy-3,5,5-trimethyl-5,6-dihydro-pyrrolo[2,1-a]isoquinoline-1-carboxylic acid ethyl ester]
226 to 229	COc1cc2c(cc1OC)-c1c(C#N)c(-c3cccc4ccccc34)c(C)n1CC2 [Example 22, 8,9-Dimethoxy-3-methyl-2-naphthalen-1-yl-5,6-dihydro-pyrrolo[2,1-a]isoquinoline-1-carbonitrile]
187 to 189	COc1cc2c(cc1OC)-c1c(C#N)c(-c3ccnc(C)c3)c(C)n1C(C)C2 (centres unmarked) [Example 45, 8,9-Dimethoxy-3,5-dimethyl-2-(2-methyl-pyridin-4-yl)-5,6-dihydro-pyrrolo[2,1-a]isoquinoline-1-carbonitrile]
191 to 193	COC(=O)CCc1c(-c2ccncc2)c(C#N)c2n1CCc1cc(OC)c(OC)cc1-2 [Example 29, 3-(1-Cyano-8,9-dimethoxy-2-pyridin-4-yl-5,6-dihydro-pyrrolo[2,1-a]isoquinolin-3-yl)-propionic acid methyl ester]
219 to 221	COc1cc2c(cc1OC)-c1c(C#N)c(-c3cn(S(C)(=O)=O)c4ccccc34)c(C)n1C(C)C2 (centres unmarked) [Example 40, 2-(1-Methanesulfonyl-1H-indol-3-yl)-8,9-dimethoxy-3,5-dimethyl-5,6-dihydro-pyrrolo[2,1-a]isoquinoline-1-carbonitrile]
177 to 179	COC(=O)c1c(-c2cc(C)c(O)c(C)c2)c(C)n2c1-c1cc(OC)c(OC)cc1CC2C (centres unmarked) [Example 65, 2-(4-Hydroxy-3,5-dimethyl-phenyl)-8,9-dimethoxy-3,5-dimethyl-5,6-dihydro-pyrrolo[2,1-a]isoquinoline-1-carboxylic acid methyl ester]
183 to 185	COc1cc2c(cc1OC)-c1c(C)c(-c3cc(C)c(O)c(C)c3)c(C)n1CC2 [Example 68, 4-(8,9-Dimethoxy-1,3-dimethyl-5,6-dihydro-pyrrolo[2,1-a]isoquinolin-2-yl)-2,6-dimethyl-phenol]
